Source: patent publication US20090181990A1 (priority 2007, published 2009)

What was measured:
Type in all cases: physicochemical
[1] = Amorphous pemetrexed disodium stability study (HPLC purity, moisture content, XRD on storage); parameters: key to HPLC: % chromatographic purity by HPLC area normalisation; settings: for HPLC: in % (unit assumed)
Procedure: (§1) X-ray diffraction data were acquired using a PANalyticalX′pert PRO X-ray diffractometer model.
(§2) System description: Kα1=1.54060 A^0, voltage 45 kV, current 40 mA, Xray source: Cu.
(§3) Experiment parameters: pattern measured between 2θ=4° and 2θ=40° with 0.05° increments; count time was 0.5 second per increment.
(§4) The water content measurements were carried out using a METTLER TOLEDO Model: DL31Karl Fischer Titrator according to standard procedures.
(§5) Purity by HPLC was performed by Waters 2690 Seperations module.system.
The samples were packed in double seal poly bags followed by Aluminium bag sealed under nitrogen with oxygen trapper and stored • at 2-8° C. for a period of six months • 25° C./60% relative humidity (RH) for a period of six months.
The purity of the sample was checked by HPLC and XRD was recorded for the samples stored under these conditions after 2 months and 6 months.
Inject 20 μl of test solution and calculate the chromatographic purity by area normalisation method.

[2] = Conservation of amorphous form under various storage conditions (XRD, moisture content)
Procedure: as §1, §2, §3, §4

[3] = Bulk and tapped density (tap density tester, USP)
Description: As referred to herein the term “bulk density” is the weight of the sample divided by its non packed volume and the term “tapped density” is the weight of the sample divided by its packed volume. The units of bulk density are grams (gm) per cubic centimeter (cc) or grams (gm) per milliliter (ml). A powder having low bulk density will be lightweight, fluffy and have greater surface area. A powder with high density will be much more compact and dense, exist as harder particles and will result in a more flowable product compared to powder with low bulk density. Bulk and tapped densities were measured using Electrolab ETD-1020 tap density tester (USP).

[4] = Material kept outside at room temperature for 15 hrs (XRD, water content, HPLC purity); settings: after room temperature
Procedure: as §1, §4, §5
The material was kept outside at room temperature for 15 hrs.

[5] = 2-8° C. or 25° C./60% relative humidity, six months
[6] = 40° C./75% relative humidity for 7 days, double polythene bags in a fiber drum
[7] = 80° C. for 7 days, open petriplate
[8] = Room temperature for 24 hours, open petriplate
[9] = Room temperature for 40 days, double polythene bags

% Moisture Content ([1]; 2-8° C., 2 Months) [%]	% Moisture Content ([1]; 2-8° C., 6 Months) [%]	XRD ([1]; 2-8° C., 6 Months)	HPLC ([1]; 2-8° C., 6 Months)	% Moisture Content ([1]; 2-8° C., Initial) [%]	HPLC ([1]; 2-8° C., Initial)	% Moisture Content ([1]; 25° C. RH 60%, 2 Months) [%]	% Moisture Content ([1]; 25° C. RH 60%, 6 Months) [%]	HPLC ([1]; 25° C. RH 60%, 6 Months)	% Moisture Content ([1]; 25° C. RH 60%, Initial) [%]	HPLC ([1]; 25° C. RH 60%, Initial)	Structure (SMILES)	also measured
11.68	12.31	Amorphous	99.59	15.92	99.66	10.26	11.45	99.63	15.92	99.66	Nc1nc2[nH]cc(CCc3ccc(C(=O)NC(CCC(=O)[O-])C(=O)[O-])cc3)c2c(=O)[nH]1.[Na+].[Na+] (stereo not shown) [Amorphous Form of Pemetrexed Disodium, with Moisture Content] [listing 1 of 2 here]	
											Nc1nc2[nH]cc(CCc3ccc(C(=O)NC(CCC(=O)[O-])C(=O)[O-])cc3)c2c(=O)[nH]1.[Na+].[Na+] (stereo not shown) [amorphous form of pemetrexed disodium, pemetrexed disodium]	amorphous form after storage (XRD) [1, 5]: amorphous form is retained; impurity formation / chemical purity after storage (HPLC) [1, 5]: no significant formation of impurities; % Moisture Content after storage [2, 6]: 18.27%; XRD [2, 6]: Amorphous form; % Moisture Content after storage [2, 7]: 6.24%; XRD [2, 7]: Amorphous form; % Moisture Content after storage [2, 8]: 20.03%; XRD [2, 8]: Amorphous form; % Moisture Content after storage [2, 9]: 18.56; XRD [2, 9]: Amorphous form; % Moisture Content Initial ([2]; before storage): 5.48%
8.96	9.39	Amorphous	99.62	9.04	99.68	8.39	8.85	99.67	9.04	99.68	Nc1nc2[nH]cc(CCc3ccc(C(=O)NC(CCC(=O)[O-])C(=O)[O-])cc3)c2c(=O)[nH]1.[Na+].[Na+] (stereo not shown) [Amorphous Form of Pemetrexed Disodium, with Moisture Content] [listing 2 of 2 here]	HPLC ([1]; 2-8° C., 2 Months): 99.72; XRD ([1]; 2-8° C., Initial): Amorphous; HPLC ([1]; 25° C. RH 60%, 2 Months): 99.72; XRD ([1]; 25° C. RH 60%, 6 Months): Amorphous; XRD ([1]; 25° C. RH 60%, Initial): Amorphous
											Nc1nc2[nH]cc(CCc3ccc(C(=O)NC(CCC(=O)[O-])C(=O)[O-])cc3)c2c(=O)[nH]1.[Na+].[Na+] (stereo not shown) [Example 2, amorphous pemetrexed disodium]	Bulk density [3]: 0.226 gm/ml; Tapped density [3]: 0.369 gm/ml
											Nc1nc2[nH]cc(CCc3ccc(C(=O)NC(CCC(=O)[O-])C(=O)[O-])cc3)c2c(=O)[nH]1.[Na+].[Na+] (stereo not shown) [Example 3, amorphous pemetrexed disodium]	HPLC purity [4]: 99.66%; Water content [4]: 16%; X-ray diffraction (form) [4]: amorphous form is retained
